{"source": "patent US11266686B2", "about": "“Metal complexes and methods of treatment” (PROCYPRA THERAPEUTICS LLC, priority 2013, dated 2022)", "key": {"[1]": {"system": "MPTP lesioned mice", "assay": "Stool frequency in MPTP lesioned mice", "type": "in vivo, C57BL/6 mice", "settings": "versus vehicle or untreated", "source_text": "Several rodent models of Parkinson's Disease have shown gastrointestinal dysfunction, which has been correlated with the loss of neuronal subpopulations within the enteric nervous system. Intraperitoneal administration of MPTP (1-methyl-4-phenyl-1,2,3,6-tetrahydropyridine) caused a significant reduction in the number of dopaminergic neurons within the substantia nigra pars compacta of C57BL/6 mice. A reduction in neuronal subpopulations within the myenteric plexus of the ileum 21 days after lesioning was also detected and was concomitant with a reduction in stool frequency, indicative of digestive dysfunction.\nPatients with neurological diseases, such as Parkinson's Diseases experiencing gastrointestinal disfunction such as constipation, may be associated with the loss of neuronal populations in conjunction with enteric glial cell reactivity within the myenteric plexus of the gastrointestinal tract. Treatment of these patients with metal complexes, such as CuATSM, that are neuroprotective in the central nervous system provides symptom release and also results in disease modifying in the gastrointestinal tract.\nMPTP lesioned mice may be treated with the NCD of CuATSM, and the results are compared with untreated mice."}, "[2]": {"system": "MPTP-lesioned mice", "assay": "Neutral Red positive cell count in substantia nigra of MPTP-lesioned mice", "type": "in vivo, mouse", "settings": "30 mg/kg API oral for 21 days", "description": "(§1) CuATSM:gluconic acid (1:2) was prepared according to the method of EXAMPLE 7. CuATSM:saccharin (1:2) was prepared according to the methods of EXAMPLE 3. CuATSM was suspended in “Standard Suspension Vehicle” (SSV), consisting of 0.9% (w/v) NaCl, 0.5% (w/v) sodium carboxymethylcellulose, 0.5% (v/v) benzyl alcohol, and 0.4% (v/v) Tween 80 in deionized water. CuATSM:gluconic acid (1:2) and CuATSM:saccharin (1:2) were suspended in sterile water. Samples were prepared by adding one of the compounds to the liquid vehicle (water or SSV) in a vial and then vortexing the mixture for 3 min with a stir bar inside.\n(§2) MPTP mouse models of PD are described by (Przedborski & Vila, 2003). […] Behavioral testing via the wire test and tissue harvesting followed.\nNeuroprotective effects of the CuATSM and NCDs were determined by cell count.\nFollowing the wire pull-up time tests, the mice were anesthetized, blood samples were then obtained for plasma studies, and the mice were then sacrificed by an overdose of anesthetic. Mice were then immediately perfused with cold PBS. The right hemisphere of the brain was placed in 5 ml of chilled 4% wt/vol paraformaldehyde (Sigma-Aldrich) in 0.1 M phosphate buffer overnight at 4° C. and pH 7.4. The brains were then removed and left at 4° C. overnight in 30% wt/vol sucrose (domestic grade) in PBS before being frozen and sectioned on a cryostat. Brains were cut coronally into 30-μm sections in a 1:3 series for the substantia nigra pars compacta (SNpc).\nThe resulting sections were stained with Neutral Red (Niss1 stain; Sigma-Aldrich). Just prior to immunostaining, the frozen sections are fixed again for 5 min in order to ensure that the brain sections are properly fixed to the glass slide. SNpc nuclei from both normal and lesioned animals were examined. […]\nThe total number of neurons in the substania nigra was estimated using fractionator sampling (Finkelstein et al., 2000; Stanic et al., 2003; West & Gundersen, 1990). […] The entire SNpc was sampled at every third section and analyzed in a series having a random offset for each brain. […]"}, "[3]": {"system": "MPTP-lesioned mice", "assay": "Traction wire test in MPTP-lesioned mouse model of PD", "type": "in vivo", "settings": "for average pull-up time as compared to SSV control: 30 mg/kg API oral for 21 days, gluconic acid NCD p=0.07; for Pull-up Time: 30 mg/kg CuATSM API equivalent, oral gavage for 21 days, average", "source_text": "Traction wire test: Mice are moved to behavior room-testing room 1 hr before test administration. Water and food remain accessible to the mice, and a background “white noise” from a radio is used throughout the hour and test period. Each mouse is pick up the mouse by the tail in one hand, and the mouse held by the tail over the wire until it grasps the wire with the front two paws. The tail is then lowered until the mouse is suspended from the wire by its front two paws. The timing is started as soon as the mouse is suspended independently, with no assistance from the test administrator. The time taken for the mouse to grasp the wire with one of the back feet, such that two front paws and one back paw are grasping the wire, is recorded as the “pull-up time”. The test is repeated for each mouse, three times in a row with a 5 minute inter-trial interval between each suspension on the wire. Mice are returned to their shared cages between trials. If a mouse falls it counts as a trial, and the time until the fall is recorded, and the inter-trial time interval is begun. If the mouse has not completed the task and has not fallen within 60 seconds, then the mouse is taken off the wire and the trial time recorded as 60 seconds. A total of 47 mice were administered MPTP. Of these, a total of 14 mice were then treated with SSV negative control. A total of 14 mice were treated with CuATSM in SSV, of which one mouse was eliminated from the wire pull-up study because of an injured paw. […] Trials in which the mouse fell during the trial were not included in the averages. […] In all instances the mice completed the other two trials successfully so that an average time was calculated for the individual mouse and subsequently for the population."}, "[4]": {"assay": "Cu-63 in brain and plasma of treated MPTP-lesioned mice by ICPMS", "description": "as §1, §2\nCopper uptake in brain and in plasma was measured by inductively-coupled plasma mass spectrometry (ICPMS) determination of the naturally-occurring copper isotope Cu-63. Brain tissue was obtained from the left hemisphere of the brain."}, "[5]": {"settings": "MPTP-lesioned mice, 30 mg/kg API oral for 21 days"}, "[6]": {"settings": "MPTP-lesioned mice, 30 mg/kg API oral for 21 days, ICPMS"}}}
{"compound": "CNC1=NN=C(C)C(C)=NN=C(NC)[S][Cu][S]1", "note": "[CuATSM, Copper(II) diacetyl-di(N4-methyl)thiosemicarbazone, reference compound]", "values": [{"measurement": "stool frequency", "setting": "[1]", "value": "improved stool frequency"}, {"measurement": "neurons in the substania nigra as compared to SSV control", "setting": "[2]", "value": "significant (all p<0.01 or less) recovery of the neurons"}, {"measurement": "average pull-up time as compared to SSV control", "setting": "[3]", "value": "significant (both p<0.01 or less) decrease"}, {"measurement": "Pull-up Time", "setting": "[3]", "value": 4.22, "unit": "s"}, {"measurement": "Cu-63 in brain, Average", "setting": "[4]; mouse, in vivo, po, 30 mg/kg", "value": 18.48, "unit": "µg/g"}, {"measurement": "Cu-63 in plasma, Average", "setting": "[4]; mouse, in vivo, po, 30 mg/kg", "value": 5.40, "unit": "μmol/ltr"}]}
{"compound": "CNC1=NN=C(C)C(C)=NN=C(NC)[S][Cu][S]1.O=C(O)C(O)C(O)C(O)C(O)CO.O=C(O)C(O)C(O)C(O)C(O)CO", "note": "[CuATSM:gluconic acid (1:2)]", "values": [{"measurement": "neurons in the substania nigra as compared to SSV control", "setting": "[2]", "value": "significant (all p<0.01 or less) recovery of the neurons"}, {"measurement": "average pull-up time as compared to SSV control", "setting": "[3]", "value": "decrease in the average pull-up time"}, {"measurement": "Pull-up Time", "setting": "[3]", "value": 4.62, "unit": "s"}, {"measurement": "Cu-63 concentrations in brain tissue as compared to the SSV control", "setting": "[4]; [5]", "value": "significant (all p<0.001) increase"}, {"measurement": "Cu-63 concentrations in plasma as compared to the SSV control", "setting": "[4]; [5]", "value": "No treatments resulted in significant (all p>0.05) change"}, {"measurement": "Cu-63 in brain, Average", "setting": "[4]; [6]", "value": 22.20, "unit": "µg/g"}, {"measurement": "Cu-63 in plasma, Average", "setting": "[4]; [6]", "value": 5.27, "unit": "μmol/ltr"}]}
{"compound": "CNC1=NN=C(C)C(C)=NN=C(NC)[S][Cu][S]1.O=C1NS(=O)(=O)c2ccccc21.O=C1NS(=O)(=O)c2ccccc21", "note": "[CuATSM:saccharin (1:2)]", "values": [{"measurement": "neurons in the substania nigra as compared to SSV control", "setting": "[2]", "value": "significant (all p<0.01 or less) recovery of the neurons"}, {"measurement": "average pull-up time as compared to SSV control", "setting": "[3]", "value": "significant (both p<0.01 or less) decrease"}, {"measurement": "Pull-up Time", "setting": "[3]", "value": 3.11, "unit": "s"}, {"measurement": "Cu-63 concentrations in brain tissue as compared to the SSV control", "setting": "[4]; [5]", "value": "significant (all p<0.001) increase"}, {"measurement": "Cu-63 concentrations in plasma as compared to the SSV control", "setting": "[4]; [5]", "value": "No treatments resulted in significant (all p>0.05) change"}, {"measurement": "Cu-63 in brain, Average", "setting": "[4]; [6]", "value": 14.66, "unit": "µg/g"}, {"measurement": "Cu-63 in plasma, Average", "setting": "[4]; [6]", "value": 6.13, "unit": "μmol/ltr"}]}
